For series [1], the system named is rat duodenum. The series is described as follows: in vitro sac permeation study, rat duodenum. Conditions: for Papp Ratio (SNP/CTRL): SNP 3 mM pretreatment. Here is the method: (§1) Animal experimental protocols (approval codes: P18-30, P19-09, and P20-14) were carried out in accordance with the Ethical Committee of Tokyo University of Pharmacy and Life Sciences. Male Wistar rats (8 weeks old) were obtained from Tokyo Laboratory Animals Science Co., Ltd. (Tokyo, Japan). Permeation studies of lipophilic drugs were carried out using the in vitro sac method, as previously described.
(§2) Based on these concentrations, the apparent permeability coefficients (Papp) of each test compound were calculated according to the following Equation (1):(1) Pappcm/s=dQ/dt×1/C0S where: • dQ/dt—the flux of the test compound in the serosal side, • C0—the initial concentration in the mucosal side, • S—the surface area of the intestinal lumen.

Series [2] can be described thus: in vitro sac permeation study, rat duodenum. As to conditions: male, Wistar, rat, 200 μM test compound. Here is the method:
as §1, §2

Series [3] can be described thus: in vitro sac permeation study, rat jejunum. Conditions: male, Wistar, rat, 200 μM test compound. The protocol: (§3) Animal experimental protocols (approval codes: P18-30, P19-09, and P20-14) were carried out in accordance with the Ethical Committee of Tokyo University of Pharmacy and Life Sciences. Male Wistar rats (8 weeks old) were obtained from Tokyo Laboratory Animals Science Co., Ltd. (Tokyo, Japan). Permeation studies of lipophilic drugs were carried out using the in vitro sac method, as previously described. […] The serosal samples were collected at 0, 10, 20, 30, 40, 60, 90, and 120 min after administration, and analyzed using a reversed-phase HPLC system (LC-2000Plus; JASCO Co., Tokyo, Japan) or fluorescence microplate reader to determine the concentration of each test compound [15].
as §2

Series [4] relates to rat jejunum. The series is described as follows: in vitro sac permeation study, rat jejunum. As to conditions: SNP 3 mM pretreatment. Here is the method: as §3, §2
Series [5] is described as follows: in vitro sac permeation study, rat ileum. As to conditions: male, Wistar, rat, 200 μM test compound. Here is the method:
as §3, §2

Series [6] has as its system rat ileum. The series is described as follows: in vitro sac permeation study, rat ileum. As to conditions: SNP 3 mM pretreatment. Here is the method: as §3, §2
Series [7] in a line: in vitro sac permeation study, rat colon. As to conditions: male, Wistar, rat, 200 μM test compound. The protocol:
as §3, §2

The subject of series [8] is rat colon. Description: in vitro sac permeation study, rat colon. As to conditions: SNP 3 mM pretreatment. Here is the method:
as §3, §2

The mark [9] stands for this setting: Papp SNP, pretreated with SNP 3 mM for 60 min.

The source of these data is article PMC8587071, “Utilization of Sodium Nitroprusside as an Intestinal Permeation Enhancer for Lipophilic Drug Absorption Improvement in the Rat Proximal Intestine” (Molecules, 2021).

For `O[C@@H](CS)[C@@H](O)CS` (racemic) [DTT, dithiothreitol], the “effect on the SNP enhancement of griseofulvin permeability” value in series [1] (DTT 10 mM for 10 min before SNP 3 mM) is recorded as “visibly disappeared”. Also, in series [1] (SNP 3 mM 60 min, DTT 10 mM 10 min), the “effect of pretreatment on flurbiprofen permeation” value was “increased”. Besides, the “effect of pretreatment on griseofulvin permeation” value in series [1] (SNP or SFC 3 mM 60 min, DTT 10 mM 10 min) is “increased”.
As usually defined, the Papp is the rate of passage across a membrane or cell layer, normalised by area and donor concentration. For `CC(C(=O)O)c1ccc(-c2ccccc2)c(F)c1` (centres unmarked) [Flurbiprofen], the Papp at 120 min, 200 μM in series [2] (Papp CTRL, SNP-untreated) came to 5.8 ± 1.7 ×10⁻⁶ cm/s; in series [2] (setting [9]), 13 ± 2.7 ×10⁻⁶ cm/s; in series [3] (Papp CTRL, SNP-untreated), 26 ± 11.9 ×10⁻⁶ cm/s; in series [3] (setting [9]), 32.7 ± 12.9 ×10⁻⁶ cm/s; in series [5] (Papp CTRL, SNP-untreated) it was 33.9 ± 11.3 ×10⁻⁶ cm/s; in series [5] (setting [9]), 39.8 ± 17.7 ×10⁻⁶ cm/s. The Papp at 120 min, 200 μM in series [7] (Papp CTRL, SNP-untreated) was found to be 28.3 ± 2.5 ×10⁻⁶ cm/s; in series [7] (setting [9]), 19.4 ± 3.7 ×10⁻⁶ cm/s. Moreover, the “Papp Ratio (SNP/CTRL)” value worked out at 2.24 in series [1], 1.26 in series [4], 1.17 in series [6] and 0.69 in series [8].
In the case of `COC1=CC(=O)C[C@@H](C)[C@]12Oc1c(Cl)c(OC)cc(OC)c1C2=O` [Griseofulvin], the Papp at 120 min, 200 μM was 8 ± 4.2 ×10⁻⁶ cm/s in series [2] (Papp CTRL, SNP-untreated); 19.6 ± 4.1 ×10⁻⁶ cm/s in series [2] (setting [9]); 42.2 ± 20 ×10⁻⁶ cm/s in series [3] (Papp CTRL, SNP-untreated); 70.3 ± 19.2 ×10⁻⁶ cm/s in series [3] (setting [9]); 24.3 ± 6 ×10⁻⁶ cm/s in series [5] (Papp CTRL, SNP-untreated); 18.4 ± 4.4 ×10⁻⁶ cm/s in series [5] (setting [9]). Moreover, the Papp at 120 min, 200 μM in series [7] (Papp CTRL, SNP-untreated) is 39.6 ± 21.4 ×10⁻⁶ cm/s; in series [7] (setting [9]), 31.7 ± 11.1 ×10⁻⁶ cm/s. Also, the “Papp Ratio (SNP/CTRL)” value in series [1] came out at 2.45; in series [4], 1.67; in series [6] it was 0.76; in series [8], 0.80.
In the case of `CC(C)NCC(O)COc1cccc2ccccc12` (centres unmarked) [Propranolol], the Papp at 120 min, 200 μM in series [2] (Papp CTRL, SNP-untreated) stood at 1.1 ± 0.6 ×10⁻⁶ cm/s; in series [2] (setting [9]) it was 1.3 ± 0.7 ×10⁻⁶ cm/s; in series [3] (Papp CTRL, SNP-untreated) it was 4.7 ± 1 ×10⁻⁶ cm/s; in series [3] (setting [9]) it was 4.3 ± 1.8 ×10⁻⁶ cm/s; in series [5] (Papp CTRL, SNP-untreated), 3.7 ± 1 ×10⁻⁶ cm/s; in series [5] (setting [9]), 3.9 ± 1 ×10⁻⁶ cm/s. In addition, the Papp at 120 min, 200 μM in series [7] (Papp CTRL, SNP-untreated) stood at 2.1 ± 1.1 ×10⁻⁶ cm/s; in series [7] (setting [9]) it was 3.5 ± 1.6 ×10⁻⁶ cm/s. In addition, the “Papp Ratio (SNP/CTRL)” value in series [1] is 1.18; in series [4], 0.91; in series [6], 1.05; in series [8], 1.67.
For `CC1(C)N([O])C(c2ccc(C(=O)O)cc2)=[N+]([O-])C1(C)C` [c-PTIO, Carboxy-PTIO], in series [1] (c-PTIO 1 mM co-pre-treated with SNP 3 mM), the “effect on the SNP enhancement of griseofulvin permeability” value was “inhibited”. Moreover, the “effect on the SNP-increased FD-4 permeation” value in series [1] (c-PTIO 1 mM with SNP 3 mM) is “disappeared”.
